A word on the IC50: it is the concentration at which inhibition is half-maximal. One may read the inhibition as the percentage by which the read-out fell short of the control.

Holding throughout (assay type): ADME, cell-based
Data set [1] concerns the target T1, Organic anion transporter 3 (Mus musculus, UniProt O88909).
T1 sequence (O88909 whole entry): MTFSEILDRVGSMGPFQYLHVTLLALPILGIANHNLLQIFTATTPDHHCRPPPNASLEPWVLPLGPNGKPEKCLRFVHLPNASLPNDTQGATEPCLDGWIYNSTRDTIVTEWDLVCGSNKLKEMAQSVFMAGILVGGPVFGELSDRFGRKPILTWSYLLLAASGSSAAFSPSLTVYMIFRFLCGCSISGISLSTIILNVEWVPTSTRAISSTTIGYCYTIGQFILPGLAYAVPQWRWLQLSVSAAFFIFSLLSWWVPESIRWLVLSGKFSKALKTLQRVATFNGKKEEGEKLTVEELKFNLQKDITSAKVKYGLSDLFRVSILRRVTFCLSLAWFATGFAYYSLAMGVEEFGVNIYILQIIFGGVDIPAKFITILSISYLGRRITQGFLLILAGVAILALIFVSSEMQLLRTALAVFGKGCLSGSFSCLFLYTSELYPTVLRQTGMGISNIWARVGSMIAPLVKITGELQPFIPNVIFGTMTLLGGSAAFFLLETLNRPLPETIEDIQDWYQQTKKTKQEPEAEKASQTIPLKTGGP
As to the kind of experiment: Inhibition of mouse OAT3 expressed in CHO cells assessed as inhibition of fluorescein uptake at 1 mM over 20 mins relative to untreated-control. The conditions noted are these: 1000 µM.

For data set [2], the target named is T2, Organic anion transporter 3 (Homo sapiens, UniProt Q8TCC7).
T2 sequence (Q8TCC7 whole entry): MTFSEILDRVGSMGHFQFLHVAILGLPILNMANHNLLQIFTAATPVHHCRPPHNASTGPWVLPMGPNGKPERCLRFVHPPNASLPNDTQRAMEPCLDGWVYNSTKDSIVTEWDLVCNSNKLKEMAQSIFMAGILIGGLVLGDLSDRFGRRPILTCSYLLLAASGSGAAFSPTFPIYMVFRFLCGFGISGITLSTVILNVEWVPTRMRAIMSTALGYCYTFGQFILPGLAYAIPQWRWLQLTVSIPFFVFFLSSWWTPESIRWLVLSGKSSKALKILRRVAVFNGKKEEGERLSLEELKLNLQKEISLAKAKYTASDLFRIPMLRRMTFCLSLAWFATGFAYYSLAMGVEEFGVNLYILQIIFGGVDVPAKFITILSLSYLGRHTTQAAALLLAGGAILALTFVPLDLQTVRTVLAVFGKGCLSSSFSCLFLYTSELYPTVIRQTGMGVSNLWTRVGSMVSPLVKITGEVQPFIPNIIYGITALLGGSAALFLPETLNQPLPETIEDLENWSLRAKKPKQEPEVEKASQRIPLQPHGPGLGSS
As to the kind of experiment: Inhibition of human OAT3 expressed in CHO cells assessed as inhibition of fluorescein uptake at 1 mM over 20 mins relative to untreated-control. The conditions noted are these: 1000 µM.

Data set [3] addresses T1, Organic anion transporter 3. In words: Inhibition of mouse OAT3 expressed in CHO cells assessed as inhibition of fluorescein uptake over 20 mins by Michaelis-Menten method.
Data set [4] deals with T2, Organic anion transporter 3. In words: Inhibition of human OAT3 expressed in CHO cells assessed as inhibition of fluorescein uptake over 20 mins by Michaelis-Menten method.
For data set [5], the target named is T1, Organic anion transporter 3. As to the kind of experiment: Inhibition of mouse OAT3 expressed in CHO cells assessed as inhibition of fluorescein uptake at 1 mM after 10 mins. Conditions: 1000 µM; call rule not given here.
The target is the same in data set [6]. In words: Inhibition of mouse OAT3 expressed in CHO cells assessed as inhibition of fluorescein uptake over 20 mins.
Data set [7] has the same target. As to the kind of experiment: Inhibition of mouse OAT3 expressed in CHO cells assessed as inhibition of fluorescein uptake at 500 uM over 20 mins relative to untreated-control.
Data set [8] has as its target T2, Organic anion transporter 3. As to the kind of experiment: (§1) Inhibition of human OAT3 expressed in CHO cells assessed as inhibition of fluorescein uptake at 500 uM over 20 mins relative to untreated-control. Conditions: cho, 20 min, 500 µM.
The target of the next data set is T3, OAT3 (Homo sapiens, UniProt Q8TCC7).
T3 sequence (Q8TCC7 whole entry): T2 sequence (Q8TCC7 whole entry)
The description is as §1. Conditions: CHO cells expressing human OAT3, probe fluorescein.

Regarding `CCCN(CCC)S(=O)(=O)c1ccc(C(=O)O)cc1` [PROBENECID], the “inhibition (INH)” value in data set [1] is “Active”; in data set [2], “Active”; in [3] it was “Dose-dependent effect”; in data set [4], “Dose-dependent effect”; in [5], “Active”; in data set [7], “Not Active”. Further, the “inhibition (INH)” value in data set [8] is “Not Active”. Besides, the half-inhibitory concentration (IC50) in data set [6] amounted to 3.02 µM.
With `CC1=C(C(=O)O)N2C(=O)[C@@H](NC(=O)[C@H](N)c3ccc(O)cc3)[C@H]2SC1` [CEFADROXIL], the “inhibition (INH)” value in data set [1] and in data set [7] was “Not Active” each time. For the same molecule, the inhibition at 20 min, 500 µM at OAT3 came out at 20%.
